Measurements reported in PubChem BioAssay (NCI).
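A five-concentration, 48-hour dose response in 96-well plates underlies each endpoint, interpolated linearly between surrounding concentrations. TGI is the concentration that stops growth completely.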

What was measured:
Experiment in all cases: NCI-60 cell line screen, 48 h
[1] = tested on: CAKI-1 renal
[2] = tested on: HCC-2998 colon
[3] = tested on: HCT-15 colon
[4] = tested on: HOP-92 NSCLC
[5] = tested on: HT29 colon
[6] = tested on: IGROV1 ovarian
[7] = tested on: K-562 leukemia
[8] = tested on: LOX IMVI melanoma
[9] = tested on: MALME-3M melanoma
[10] = tested on: NCI-H226 lung
[11] = tested on: NCI-H23 lung
[12] = tested on: NCI-H460 lung
[13] = tested on: NCI-H522 lung
[14] = tested on: NCI/ADR-RES ovarian
[15] = tested on: OVCAR-3 ovarian
[16] = tested on: RXF 393 renal
[17] = tested on: SK-MEL-5 melanoma
[18] = tested on: SNB-75 CNS
[19] = tested on: U251 CNS
[20] = tested on: UACC-257 melanoma

Structure (SMILES) | TGI [1] [µM] | TGI [2] [µM] | TGI [3] [µM] | TGI [4] [µM] | TGI [5] [µM] | TGI [6] [µM] | TGI [7] [µM] | TGI [8] [µM] | TGI [9] [µM] | TGI [10] [µM] | TGI [11] [µM] | TGI [12] [µM] | TGI [13] [µM] | TGI [14] [µM] | TGI [15] [µM] | TGI [16] [µM] | TGI [17] [µM] | TGI [18] [µM] | TGI [19] [µM] | TGI [20] [µM]
CC(=O)O[C@H]1[C@@H](OC(C)=O)C(C)(C)/C=C/[C@H](C)C(=O)[C@@]2(OC(C)=O)C[C@@](C)(OC(C)=O)[C@H](OC(C)=O)[C@@H]2[C@H]2OC(=O)CC[C@@]2(OC(=O)c2ccccc2)[C@@H]1OCC(C)C | > 100 | > 100 | > 100 | > 100 | > 100 | > 100 | > 100 | > 100 | > 100 | > 100 | > 100 | > 100 | > 100 | > 100 | > 100 | > 100 | > 100 | 66.2 | > 100 | > 100
NC1(C(=O)O)CCCC1 | > 625 | > 625 | > 625 | > 625 | > 625 | > 625 | > 625 | > 625 | > 625 | > 625 | > 625 | > 625 | > 625 | > 625 | > 62.5 | > 625 | > 625 | > 625 | > 625 | > 625
